In PubChem BioAssay AID228 (DTP/NCI, 2004):
Where “and” joins values, the source holds several entries; their conditions need not be identical. Equal values may be shown once. Inconclusive results are not listed.

System: BDF1 mice, Friend leukemia sc, tumor weight T/C
Test: NCI In Vivo Anticancer Drug Screen. Data for tumor model Friend Virus Leukemia (Solid) (subcutaneous) in B6D2F1 (BDF1) mice
Details: endpoint: mean tumor weight, higher = larger tumour
Method: The antitumor activity of compounds was measured in mice bearing transplantable tumors. Survival or tumor size were measured and the results are expressed as the measurement made in the treated group (T) divided by the measurement made in the vehicle treated control group (C). The tumor model used in this assay is Friend Virus Leukemia (Solid) (subcutaneous) in B6D2F1 (BDF1) mice

[1] = dose: 1.25 mg/kg/injection, schedule: Q01DX011 (ip), vehicle: carboxymethylcellulose (CMC)
[2] = dose: 125.0 mg/kg/injection, schedule: Q01DX011 (ip), vehicle: carboxymethylcellulose (CMC)
[3] = dose: 6.0 mg/kg/injection, schedule: Q01DX011 (sc), vehicle: steriod suspending solution
[4] = dose: 12.0 mg/kg/injection, schedule: Q01DX011 (sc), vehicle: steriod suspending solution
[5] = dose: 50.0 mg/kg/injection, schedule: Q01DX011 (sc), vehicle: steriod suspending solution
[6] = dose: 100.0 mg/kg/injection, schedule: Q01DX011 (sc), vehicle: steriod suspending solution
[7] = dose: 200.0 mg/kg/injection, schedule: Q01DX011 (sc), vehicle: steriod suspending solution
[8] = dose: 15.0 mg/kg/injection, schedule: Q01DX011 (ip), vehicle: carboxymethylcellulose (CMC)
[9] = dose: 4.0 mg/kg/injection, schedule: Q01DX011 (ip), vehicle: carboxymethylcellulose (CMC)
[10] = dose: 37.5 mg/kg/injection, schedule: Q01DX011 (ip), vehicle: carboxymethylcellulose (CMC)
[11] = dose: 75.0 mg/kg/injection, schedule: Q01DX011 (ip), vehicle: carboxymethylcellulose (CMC)
[12] = dose: 50.0 mg/kg/injection, schedule: Q01DX011 (ip), vehicle: carboxymethylcellulose (CMC)
[13] = dose: 100.0 mg/kg/injection, schedule: Q01DX011 (ip), vehicle: carboxymethylcellulose (CMC)

Q: With `Nc1ncnc2c1ccn2C1OC(CO)C(O)C1O` (stereo not given) as the compound, how does the T/C (dose: 0.6 mg/kg/injection, schedule: Q01DX011 (ip), vehicle: carboxymethylcellulose (CMC)) read?
A: 104 % of control

Q: And the T/C [1]?
A: 72 % of control

Q: How did the T/C (dose: 31.0 mg/kg/injection, schedule: Q01DX011 (ip), vehicle: carboxymethylcellulose (CMC)) turn out when `C[N+](C)(C)c1ncnc2nc[nH]c12` was run?
A: 106 % of control

Q: What about the T/C (dose: 62.0 mg/kg/injection, schedule: Q01DX011 (ip), vehicle: carboxymethylcellulose (CMC)) of the same compound?
A: 43 % of control

Q: What about the T/C [2] of the same compound?
A: 47 % of control

Q: What does the source list for `C=C(C)C(=O)OCC1CO1` (stereo not given)?
A: T/C (dose: 50.0 mg/kg/injection, schedule: Q01DX011 (ip), vehicle: water): 99 % of control; T/C (dose: 100.0 mg/kg/injection, schedule: Q01DX011 (ip), vehicle: water): 110 % of control

Q: Which results are given for `CCC(c1ccc(O)cc1)C(CC)c1ccc(OC)cc1` (stereo not given)?
A: T/C (dose: 0.5 mg/kg/injection, schedule: Q01DX011 (sc), vehicle: steriod suspending solution): 86 % of control; T/C (dose: 1.0 mg/kg/injection, schedule: Q01DX011 (sc), vehicle: steriod suspending solution): 73 % of control; T/C (dose: 3.0 mg/kg/injection, schedule: Q01DX011 (sc), vehicle: steriod suspending solution): 60 % of control and 72 % of control; T/C [3]: 61 % of control and 73 % of control; T/C [4]: 43 % of control; T/C (dose: 25.0 mg/kg/injection, schedule: Q01DX011 (sc), vehicle: steriod suspending solution): 54 % of control and 48 % of control; T/C [5]: 38 % of control; T/C [6]: 43 % of control; T/C [7]: 36 % of control

Q: How did the T/C (dose: 4.4 mg/kg/injection, schedule: Q01DX011 (ip), vehicle: carboxymethylcellulose (CMC)) turn out when `C[n+]1c(-c2ccccc2)c2cc(N)ccc2c2ccccc21` was run?
A: 103 % of control

Q: What about the T/C (dose: 6.6 mg/kg/injection, schedule: Q01DX011 (ip), vehicle: carboxymethylcellulose (CMC)) of the same compound?
A: 117 % of control

Q: And the T/C (dose: 10.0 mg/kg/injection, schedule: Q01DX011 (ip), vehicle: carboxymethylcellulose (CMC))?
A: 53 % of control

Q: And the T/C [8]?
A: 89 % of control

Q: With `NNc1ncnc2nc[nH]c12` as the compound, how does the T/C (dose: 25.0 mg/kg/injection, schedule: Q01DX011 (ip), vehicle: saline) read?
A: 118 % of control

Q: What about the T/C (dose: 50.0 mg/kg/injection, schedule: Q01DX011 (ip), vehicle: saline) of the same compound?
A: 61 % of control

Q: Which results are given for `N[C@@H](Cc1ccc(N(CCCl)CCCl)cc1)C(=O)O`?
A: T/C [1]: 84 % of control; T/C (dose: 2.5 mg/kg/injection, schedule: Q01DX011 (ip), vehicle: carboxymethylcellulose (CMC)): 50 % of control; T/C (dose: 3.75 mg/kg/injection, schedule: Q01DX011 (ip), vehicle: carboxymethylcellulose (CMC)): 53 % of control; T/C [9]: 35 % of control; T/C (dose: 5.0 mg/kg/injection, schedule: Q01DX011 (ip), vehicle: carboxymethylcellulose (CMC)): 35 % of control

Q: How did the T/C (dose: 43.5 mg/kg/injection, schedule: Q01DX011 (ip), vehicle: saline) turn out when `CNCc1ccccc1` was run?
A: 110 % of control

Q: What about the T/C (dose: 87.0 mg/kg/injection, schedule: Q01DX011 (ip), vehicle: saline) of the same compound?
A: 100 % of control

Q: How did the T/C (dose: 0.12 mg/kg/injection, schedule: Q01DX011 (ip), vehicle: carboxymethylcellulose (CMC)) turn out when `CC[C@]1(O)C[C@H]2CN(CCc3c([nH]c4ccccc34)[C@@](C(=O)OC)(c3cc4c(cc3OC)N(C)[C@H]3[C@@](O)(C(=O)OC)[C@H](OC(C)=O)[C@]5(CC)C=CCN6CC[C@]43[C@@H]65)C2)C1` was run?
A: 103 % of control

Q: What about the T/C (dose: 0.24 mg/kg/injection, schedule: Q01DX011 (ip), vehicle: carboxymethylcellulose (CMC)) of the same compound?
A: 53 % of control

Q: What does the source list for `O=C(O)Cc1ccc(C2CCCCC2)cc1`?
A: T/C [10]: 106 % of control; T/C [11]: 114 % of control; T/C (dose: 150.0 mg/kg/injection, schedule: Q01DX011 (ip), vehicle: carboxymethylcellulose (CMC)): 106 % of control; T/C (dose: 300.0 mg/kg/injection, schedule: Q01DX011 (ip), vehicle: carboxymethylcellulose (CMC)): 94 % of control

Q: `CC(=O)[C@H]1CC[C@H]2[C@@H]3C[C@H](C)C4=CC(=O)CC[C@]4(C)[C@@]3(F)[C@@H](O)C[C@]12C` was tested. Which T/C [3] did it give?
A: 163 % of control

Q: And the T/C (dose: 8.0 mg/kg/injection, schedule: Q01DX011 (sc), vehicle: steriod suspending solution)?
A: 162 % of control

Q: And the T/C [4]?
A: 151 % of control

Q: And the T/C (dose: 16.0 mg/kg/injection, schedule: Q01DX011 (sc), vehicle: steriod suspending solution)?
A: 80 % of control

Q: What about the T/C [5] of the same compound?
A: 66 % of control and 43 % of control

Q: And the T/C [6]?
A: 22 % of control and 47 % of control

Q: And the T/C [7]?
A: 46 % of control

Q: For `CCn1cnc2c(=S)nc(N)[nH]c21`, which T/C (dose: 0.5 mg/kg/injection, schedule: Q01DX011 (ip), vehicle: carboxymethylcellulose (CMC)) is on record?
A: 76 % of control

Q: What about the T/C (dose: 1.0 mg/kg/injection, schedule: Q01DX011 (ip), vehicle: carboxymethylcellulose (CMC)) of the same compound?
A: 89 % of control

Q: What about the T/C (dose: 3.0 mg/kg/injection, schedule: Q01DX011 (ip), vehicle: carboxymethylcellulose (CMC)) of the same compound?
A: 24 % of control and 49 % of control

Q: And the T/C (dose: 7.0 mg/kg/injection, schedule: Q01DX011 (ip), vehicle: carboxymethylcellulose (CMC))?
A: 11 % of control

Q: What about the T/C [8] of the same compound?
A: 4 % of control and 18 % of control

Q: For `O=C(Nc1ccc(C2=NCCN2)cc1)c1ccc(C(=O)Nc2ccc(C3=NCCN3)cc2)c(NC(=O)c2ccc(C(=O)Nc3cc(C(=O)Nc4ccc(C5=NCCN5)cc4)ccc3C(=O)Nc3ccc(C4=NCCN4)cc3)cc2)c1`, which T/C [2] is on record?
A: 161 % of control

Q: And the T/C (dose: 500.0 mg/kg/injection, schedule: Q01DX011 (ip), vehicle: carboxymethylcellulose (CMC))?
A: 115 % of control

Q: With `CN(N=O)C(N)=O` as the compound, how does the T/C [9] read?
A: 94 % of control and 95 % of control

Q: What about the T/C (dose: 5.0 mg/kg/injection, schedule: Q01DX011 (ip), vehicle: saline) of the same compound?
A: 53 % of control

Q: What about the T/C (dose: 8.0 mg/kg/injection, schedule: Q01DX011 (ip), vehicle: carboxymethylcellulose (CMC)) of the same compound?
A: 98 % of control and 117 % of control

Q: What about the T/C (dose: 10.0 mg/kg/injection, schedule: Q01DX011 (ip), vehicle: saline) of the same compound?
A: 31 % of control

Q: And the T/C (dose: 15.0 mg/kg/injection, schedule: Q01DX011 (ip), vehicle: saline)?
A: 20 % of control

Q: And the T/C (dose: 16.0 mg/kg/injection, schedule: Q01DX011 (ip), vehicle: carboxymethylcellulose (CMC))?
A: 46 % of control and 49 % of control

Q: What about the T/C (dose: 22.0 mg/kg/injection, schedule: Q01DX011 (ip), vehicle: saline) of the same compound?
A: 22 % of control

Q: What about the T/C (dose: 30.0 mg/kg/injection, schedule: Q01DX011 (ip), vehicle: carboxymethylcellulose (CMC)) of the same compound?
A: 59 % of control

Q: What does the source list for `O=C(O)c1cc(O)c(O)c(O)c1`?
A: T/C (dose: 50.0 mg/kg/injection, schedule: Q01DX011 (ip), vehicle: alkali diluted with saline): 85 % of control; T/C (dose: 100.0 mg/kg/injection, schedule: Q01DX011 (ip), vehicle: alkali diluted with saline): 79 % of control; T/C (dose: 200.0 mg/kg/injection, schedule: Q01DX011 (ip), vehicle: alkali diluted with saline): 84 % of control; T/C (dose: 400.0 mg/kg/injection, schedule: Q01DX011 (ip), vehicle: alkali diluted with saline): 95 % of control

Q: How did the T/C (dose: 110.0 mg/kg/injection, schedule: Q01DX011 (ip), vehicle: carboxymethylcellulose (CMC)) turn out when `O=c1cn[nH]c(=O)[nH]1` was run?
A: 72 % of control

Q: What about the T/C (dose: 220.0 mg/kg/injection, schedule: Q01DX011 (ip), vehicle: carboxymethylcellulose (CMC)) of the same compound?
A: 89 % of control

Q: And the T/C (dose: 440.0 mg/kg/injection, schedule: Q01DX011 (ip), vehicle: carboxymethylcellulose (CMC))?
A: 96 % of control

Q: How did the T/C (dose: 250.0 mg/kg/injection, schedule: Q01DX011 (sc), vehicle: steriod suspending solution) turn out when `C[C@]12C=CC(=O)C=C1CC[C@@H]1[C@@H]2CC[C@]2(C)OC(=O)CC[C@@H]12` was run?
A: 115 % of control

Q: What about the T/C (dose: 500.0 mg/kg/injection, schedule: Q01DX011 (sc), vehicle: steriod suspending solution) of the same compound?
A: 120 % of control

Q: What about the T/C (dose: 1000.0 mg/kg/injection, schedule: Q01DX011 (sc), vehicle: steriod suspending solution) of the same compound?
A: 112 % of control

Q: For `Clc1ncnc2nc[nH]c12`, which T/C [12] is on record?
A: 71 % of control

Q: And the T/C [13]?
A: 47 % of control

Q: What about the T/C (dose: 200.0 mg/kg/injection, schedule: Q01DX011 (ip), vehicle: carboxymethylcellulose (CMC)) of the same compound?
A: 18 % of control

Q: What does the source list for `CCOC(=O)NP(=O)(N1CC1(C)C)N1CC1(C)C` (stereo not given)?
A: T/C (dose: 125.0 mg/kg/injection, schedule: Q01DX011 (ip), vehicle: saline): 73 % of control; T/C (dose: 187.0 mg/kg/injection, schedule: Q01DX011 (ip), vehicle: saline): 101 % of control; T/C (dose: 250.0 mg/kg/injection, schedule: Q01DX011 (ip), vehicle: saline): 65 % of control; T/C (dose: 375.0 mg/kg/injection, schedule: Q01DX011 (ip), vehicle: saline): 24 % of control

Q: How did the T/C (dose: 25.0 mg/kg/injection, schedule: Q01DX011 (ip), vehicle: carboxymethylcellulose (CMC)) turn out when `CCn1cnc2c(=S)nc[nH]c21` was run?
A: 105 % of control

Q: And the T/C [12]?
A: 66 % of control

Q: What about the T/C [13] of the same compound?
A: 12 % of control

Q: Which T/C (dose: 19.0 mg/kg/injection, schedule: Q01DX011 (ip), vehicle: carboxymethylcellulose (CMC)) does the source give for `CCCCCCCCCCCCCCCCC(C(=O)O)C(O)(CC(=O)O)C(=O)O` (stereo not given) here?
A: 107 % of control

Q: What about the T/C [10] of the same compound?
A: 100 % of control

Q: And the T/C [11]?
A: 35 % of control
